Values quoted from earlier work as cited in patent US20140127291A1, “EXTENDED RELEASE ACETAMINOPHEN LIQUID PHARMACEUTICAL COMPOSITIONS” (MAYNE PHARMA INTERNATIONAL PTY LTD, priority 2011, published 2014).

Experiments:
[1] = in vivo

- half life [1]: 1 to 4 h
- saturation concentration in water: about 14 mg/ml
Structure (SMILES): CC(=O)Nc1ccc(O)cc1 [acetaminophen]
